Assays:
[1] = target: T1, Brd4 bromodomain 1 (BRD4(1)) (Homo sapiens, UniProt O60885); assay: Inhibition of tetra-acetylated histone H4 binding to Brd4 bromodomain 1 (TR-FRET); settings: tetra-acetylated histone H4 peptide, first bromodomain of Brd4
T1 construct: made in house; host or cells: E. coli BL21(DE3)
Method in brief: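 His-tagged BRD4(1) from E. coli (200 nM) with biotinylated tetra-acetylated H4 peptide (25-50 nM), Eu-cryptate streptavidin and XL665 anti-His, in HEPES pH 7.4/phosphate/KF buffer, 0.2% DMSO. After 2 h at room temperature, TR-FRET 665/620 nm ratio read; IC50 from dose-response curves.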

c-myc = assay: Inhibition of c-myc expression (mRNA, real-time PCR) in MV4-11 cells; type: cell-based; settings: Human AML MV4-11 cells, 3 h, cMYC mRNA
Method in brief: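 MV4-11 cells treated 3 h at 37° C with increasing compound concentrations or 0.1% DMSO, in triplicate. cMYC mRNA quantified by one-step TaqMan real-time PCR, Ct normalized to internal control (Cyclophilin primers used), fold expression relative to control.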

human AML MV-4-11 cells = assay: Inhibition of cell proliferation in MV4-11 cells (CellTiter Aqueous One); type: cell-based; settings: for IC50: MV4-11, 72 h
Method in brief: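 Exponentially growing MV-4-11 cells (5×10^4/well) were treated immediately with two-fold dilutions of compound from 30 μM to 0.2 μM, in triplicate, for 72 h at 37° C, 5% CO2. Viability was measured by MTS absorbance at 490 nm after 3–4 h. Proliferation relative to DMSO after blank correction gave IC50.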

hIL-6 mRNA = assay: Inhibition of hIL-6 mRNA transcription in LPS-stimulated U937 cells; type: cell-based; settings: Homo sapiens, U-937; PMA-differentiated U937 cells, 1 h pretreatment, 1 ug/mL LPS stimulation, 3 h; read-out: IL-6 activity (Inhibition of hIL-6 mRNA Transcription)
Method in brief: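 U937 cells differentiated 3 days with 60 ng/mL PMA, pretreated 1 h with compound (0.1% DMSO), then stimulated with 1 ug/mL E. coli LPS for 3 h at 37 °C. hIL-6 mRNA measured by one-step TaqMan RT-qPCR, normalized to cyclophilin. Fold expression relative to control; triplicate wells.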

hIL-17 mRNA = assay: Inhibition of hIL-17 mRNA transcription in OKT3-stimulated peripheral blood mononuclear cells; type: cell-based; settings: PBMC, human peripheral blood mononuclear cells, OKT3 antibody, 6 h, read-out: IL-17 activity
Method: In this example, hIL-17 mRNA in human peripheral blood mononuclear cells was quantitated to measure the transcriptional inhibition of hIL-17 when treated with a compound of the invention.
Human peripheral blood mononuclear cells were plated (2.0×10^5 cells per well) in a 96-well plate in 45 μL OpTimizer T Cell expansion media containing 20 ng/ml IL-2 and penicillin/streptomycin. The cells were treated with the test compound (45 μL at 2× concentration), and then the cells were incubated at 37° C. for 1 h before addition of 10× stock OKT3 antibody at 10 μg/ml in media. Cells were incubated at 37° C. for 6 h before the cells were harvested. At time of harvest, cells were centrifuged (800 rpm, 5 min). Spent media was removed and cell lysis solution (70 μL) was added to the cells in each well and incubated for 5-10 min at room temperature, to allow for complete cell lysis and detachment. mRNA was then prepared using the “mRNA Catcher PLUS plate” (Invitrogen), according to the protocol supplied. After the last wash, as much wash buffer as possible was aspirated without allowing the wells to dry. Elution buffer (E3, 70 μL) was then added to each well. mRNA was then eluted by incubating the mRNA Catcher PLUS plate with Elution Buffer for 5 min at 68° C. and then immediately placing the plate on ice.
The eluted mRNA isolated was then used in a one-step quantitative RT-PCR reaction, using components of the Ultra Sense Kit together with Applied Biosystems primer-probe mixes. Real-time PCR data was analyzed, normalizing the Ct values for hIL-17 to an internal control, prior to determining the fold induction of each unknown sample, relative to the control.

Row | IC50 [1] | IC50 (c-myc) | IC50 (human AML MV-4-11 cells) | IC50 (hIL-6 mRNA) | IC50 (hIL-17 mRNA) | Structure (SMILES) | Cell Proliferation activity (human AML MV-4-11 cells; 72 h)
1 | ≤ 300 nM | 300 to 3000 nM | 300 to 3000 nM | 300 to 3000 nM | 300 to 3000 nM | Cc1noc(C)c1-c1cnc2cnn(Cc3ccc(F)cc3)c2c1 [Example Compound 51, 4-(1-(4-fluorobenzyl)-1H-pyrazolo[4,3-b]pyridin-6-yl)-3,5-dimethylisoxazole] | –
2 | ≤ 300 nM | 300 to 3000 nM | 300 to 3000 nM | 300 to 3000 nM | 300 to 3000 nM | Cc1noc(C)c1-c1cnc2[nH]c(=O)n(Cc3ccc(Cl)cc3)c2c1 [compound 105, 1-(4-chlorobenzyl)-6-(3,5-dimethylisoxazol-4-yl)-1H-imidazo[4,5-b]pyridin-2(3H)-one] | –
3 | ≤ 300 nM | ≤ 300 nM | ≤ 300 nM | 300 to 3000 nM | 300 to 3000 nM | CCNc1nc2c([N+](=O)[O-])cc(-c3c(C)noc3C)cc2n1Cc1ccccc1 [Example Compound 18, 1-benzyl-6-(3,5-dimethylisoxazol-4-yl)-N-ethyl-4-nitro-1H-benzo[d]imidazol-2-amine] | –
4 | ≤ 300 nM | 300 to 3000 nM | 300 to 3000 nM | 300 to 3000 nM | 300 to 3000 nM | Cc1noc(C)c1-c1cnc2ncn(Cc3ccccc3)c2c1 [Example Compound 5, 4-(1-Benzyl-1H-imidazo[4,5-b]pyridin-6-yl)-3,5-dimethylisoxazole] | –
5 | ≤ 300 nM | ≤ 300 nM | 300 to 3000 nM | ≤ 300 nM | ≤ 300 nM | CC(=O)Nc1cc(-c2c(C)noc2C)cc2c1nc(C)n2Cc1ccccc1 [Example Compound 64, N-(1-benzyl-6-(3,5-dimethylisoxazol-4-yl)-2-methyl-1H-benzo[d]imidazol-4-yl)acetamide] | –
6 | ≤ 300 nM | 300 to 3000 nM | 300 to 3000 nM | ≤ 300 nM | ≤ 300 nM | Cc1noc(C)c1-c1cnc2[nH]c(=O)n(Cc3ccccc3)c2c1 [Example Compound 10, 1-Benzyl-6-(3,5-dimethylisoxazol-4-yl)-1H-imidazo[4,5-b]pyridin-2(3H)-one] | –
7 | ≤ 300 nM | 300 to 3000 nM | 300 to 3000 nM | ≤ 300 nM | 300 to 3000 nM | Cc1noc(C)c1-c1cnc2nc(C)n(Cc3ccccc3)c2c1 [Example Compound 13, 4-(1-benzyl-2-methyl-1H-imidazo[4,5-b]pyridin-6-yl)-3,5-dimethylisoxazole] | –
8 | ≤ 300 nM | 300 to 3000 nM | 300 to 3000 nM | 300 to 3000 nM | – | Cc1noc(C)c1-c1cnc2c(Cl)cn(Cc3ccccc3)c2c1 [compound 89, 4-(1-benzyl-3-chloro-1H-pyrrolo[3,2-b]pyridin-6-yl)-3,5-dimethylisoxazole] | –
9 | ≤ 300 nM | 300 to 3000 nM | 300 to 3000 nM | 300 to 3000 nM | – | Cc1noc(C)c1-c1cnc2nc(C)n(Cc3ccc(Cl)s3)c2c1 [compound 77, 4-(1-((5-chlorothiophen-2-yl)methyl)-2-methyl-1H-imidazo[4,5-b]pyridin-6-yl)-3,5-dimethylisoxazole] | –
10 | ≤ 300 nM | ≤ 300 nM | 300 to 3000 nM | ≤ 300 nM | – | Cc1noc(C)c1-c1cc(N)c2[nH]c(=O)n(Cc3ccc(O)cc3)c2c1 [compound 129, 4-amino-6-(3,5-dimethylisoxazol-4-yl)-1-(4-hydroxybenzyl)-1H-benzo[d]imidazol-2(3H)-one] | –
11 | ≤ 300 nM | ≤ 300 nM | ≤ 300 nM | ≤ 300 nM | – | Cc1noc(C)c1-c1cc(N)c2[nH]c(=O)n(C(C)c3ccccc3)c2c1 (centres unmarked) [compound 115, 4-amino-6-(3,5-dimethylisoxazol-4-yl)-1-(1-phenylethyl)-1H-benzo[d]imidazol-2(3H)-one] | –
12 | ≤ 300 nM | 300 to 3000 nM | 300 to 3000 nM | 300 to 3000 nM | – | Cc1noc(C)c1-c1cc(N)c2ncn(Cc3ccc(F)cc3)c2c1 [Example Compound 27, 6-(3,5-dimethylisoxazol-4-yl)-1-(4-fluorobenzyl)-1H-benzo[d]imidazol-4-amine] | –
13 | 300 to 3000 nM | 3000 to 30000 nM | 3000 to 30000 nM | 300 to 3000 nM | – | Cc1noc(C)c1-c1cnc2nc(C)n(Cc3ccncc3)c2c1 [compound 74, 3,5-dimethyl-4-(2-methyl-1-(pyridin-4-ylmethyl)-1H-imidazo[4,5-b]pyridin-6-yl)isoxazole] | –
14 | ≤ 300 nM | 300 to 3000 nM | ≤ 300 nM | ≤ 300 nM | – | Cc1noc(C)c1-c1cnc2nc(N3CCC3)n(CC3CCC3)c2c1 [compound 211, 4-(2-(azetidin-1-yl)-1-(cyclobutylmethyl)-1H-imidazo[4,5-b]pyridin-6-yl)-3,5-dimethylisoxazole] | –
15 | ≤ 300 nM | 300 to 3000 nM | 3000 to 30000 nM | 300 to 3000 nM | – | Cc1noc(C)c1-c1cnc2nc(C)n(Cc3ccc(Cl)cc3Cl)c2c1 [Example Compound 61, 4-(1-(2,4-dichlorobenzyl)-2-methyl-1H-imidazo[4,5-b]pyridin-6-yl)-3,5-dimethylisoxazole] | –
16 | ≤ 300 nM | 300 to 3000 nM | 3000 to 30000 nM | 300 to 3000 nM | – | Cc1noc(C)c1-c1cnc2[nH]c(=O)n([C@H](C)c3ccccc3)c2c1 [compound 218, (R)-6-(3,5-dimethylisoxazol-4-yl)-1-(1-phenylethyl)-1H-imidazo[4,5-b]pyridin-2(3H)-one] | –
17 | ≤ 300 nM | 300 to 3000 nM | 300 to 3000 nM | 300 to 3000 nM | – | CCS(=O)(=O)Nc1cc(-c2c(C)noc2C)cc2c1nc(C)n2Cc1ccccc1 [Example Compound 65, N-(1-benzyl-6-(3,5-dimethylisoxazol-4-yl)-2-methyl-1H-benzo[d]imidazol-4-yl)ethanesulfonamide] | –
18 | ≤ 300 nM | ≤ 300 nM | ≤ 300 nM | ≤ 300 nM | – | CNc1nc2ncc(-c3c(C)noc3C)cc2n1Cc1ccccc1 [compound 146, 1-benzyl-6-(3,5-dimethylisoxazol-4-yl)-N-methyl-1H-imidazo[4,5-b]pyridin-2-amine] | –
19 | ≤ 300 nM | – | – | 300 to 3000 nM | 3000 to 30000 nM | Cc1noc(C)c1-c1cnc2c(C)nn(Cc3ccc(F)cc3)c2c1 [Example Compound 53, 4-(1-(4-fluorobenzyl)-3-methyl-1H-pyrazolo[4,3-b]pyridin-6-yl)-3,5-dimethylisoxazole] | Not active
20 | ≤ 300 nM | 300 to 3000 nM | 3000 to 30000 nM | 300 to 3000 nM | – | Cc1noc(C)c1-c1cc([N+](=O)[O-])c2nc(C)n(CC3CC3)c2c1 [Example Compound 14, 4-(1-(cyclopropylmethyl)-2-methyl-4-nitro-1H-benzo[d]imidazol-6-yl)-3,5-dimethylisoxazole] | –
21 | ≤ 300 nM | 3000 to 30000 nM | 300 to 3000 nM | 300 to 3000 nM | – | Cc1noc(C)c1-c1cnc2nc(C3CCOCC3)n(Cc3ccccc3)c2c1 [compound 220, 4-(1-benzyl-2-(tetrahydro-2H-pyran-4-yl)-1H-imidazo[4,5-b]pyridin-6-yl)-3,5-dimethylisoxazole] | –
22 | ≤ 300 nM | ≤ 300 nM | ≤ 300 nM | ≤ 300 nM | – | CC(=O)Nc1cc(-c2c(C)noc2C)cc2c1[nH]c(=O)n2Cc1ccccc1 [compound 111, N-(1-benzyl-6-(3,5-dimethylisoxazol-4-yl)-2-oxo-2,3-dihydro-1H-benzo[d]imidazol-4-yl)acetamide] | –
